Common to all, as to assay type: in vitro ADME
Data set [1] in a line: Permeability in porcine brain endothelial cell blood-brain barrier model. Conditions: pig (endothelial cells), co-cultured with rat astrocytes, pH 7.4, PBECs/As blood-brain barrier model, luminal to basal. The source says: Compounds disclosed herein show the potential to reach mammalian brain by crossing the blood-brain barrier (BBB) from systemic circulation. […] The porcine brain endothelial cell permeability assay is an in vitro BBB model to be used for the prediction of central nervous system (CNS) drug permeability in vivo and for ranking or prioritization of compounds according to their permeability. This system can also be used for mechanistic studies and drug delivery strategies via receptor-mediated transport (transcytosis). The system is a two-dimensional co-culture, non-contact model of two types of primary cells: primary brain endothelial cells obtained from fresh porcine brains, and primary rat astrocytes, obtained from neonatal rats. This ensures barrier formation and functional expression of key transporters.
The endothelial cells were cultured on rat-tail collagen type I and human fibronectin coated Transwell polycarbonate inserts (surface area 0.7 cm^2; pore size 0.4 μm) and the inserts were placed in 24-well plates containing confluent rat astrocytes. This system allows for the formation of a differentiated BBB model suitable for compound permeability in 10 days.
On the day of the experiment, culture medium was removed and cells were pre-incubated for 30 min with HBSS containing 20 mM Hepes pH 7.4 and 0.1% BSA. Donor volume (apical) was 400 μl and receiver volume (basal) 900 μl. Compounds were diluted in assay medium (at the desired concentration) and added to the luminal side (to mimic blood to brain passage). Transport was measured usually after 60 min by detecting the amount of compound from the basal (brain side). The integrity of the cell layers was assessed by measuring the transendothelial electrical resistance (TEER) and by monitoring FITC-dextran (40 KDa) permeation. Inserts with TEER values […] were selected for permeability studies. As FITC-dextran cannot freely permeate lipophilic barriers, a high degree of FITC-dextran transport indicates poor integrity of the cell layer and wells with high FITC-dextran permeability were excluded. FITC-dextran was included as internal control in each insert used for permeability studies. Fluorescence was measured using a fluorimetric detector. Radioactivity was measured by scintillation counting. For LC-MS/MS analysis, aliquots (200 μl) from the basal compartment were diluted with an equal volume of 100% acetonitrile containing 0.1% formic acid, centrifuged to remove cell debris, and evaporated under N2. After reconstitution, samples were analyzed by LC-MS/MS. Mass balance was determined considering the amount of compound recovered in the donor and receiver chamber at the end of the assay relative to the amount added to the donor chamber at time 0.
Permeability was defined as the apparent permeability coefficient (Papp), which is a measure of the appearance rate of the compound in the receiver chamber, expressed in cm/s. Papp is calculated according the following equation: Papp[cm/sec]=Vd*ΔMr/A*Md*Δt, Equation 2: where
Vd=volume in the donor compartment in cm^3 or mL;
ΔMr=total amount of compound in the receiver compartment after t seconds;
Md=donor amount (added at time 0)
Δt=time measured in seconds
A=filter area in cm^2 (for 24 well plate, A=0.7 cm^2).
To correct for the contribution of filter and substrate, Papp was also determined for the cell-free system. Permeability of the endothelial cell layer was determined using the following equation: […], Equation 3: where
Ptotal=the P of the total system,
Pf=P for the cell-free filter, and
Pe=P for the endothelial cell layer alone. In this equation, the total resistance of the system towards passage of a substance is additively composed of two […] resistances: that of the cell monolayer and that of the filter.

Data set [2] can be described thus: Stability in human hepatocytes. The note with it: for half-life at 5 µM: t1/2, Human Hepatocytes.
A short description of data set [3]: Stability in human plasma. The note with it: 37° C. An outline of the steps: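 Test compound at 3 μM (0.1% DMSO) was incubated in mouse or human plasma at 37 °C and sampled in duplicate at 0, 10, 20, 30, 40 and 60 min. Reactions were stopped with acetonitrile/formic acid containing internal standard. Remaining parent was measured by UPLC-MS/MS without a calibration curve.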

The nature of data set [4]: Stability in mouse hepatocytes.
The mark [5] stands for this setting: Diastereoisomer A, read-out: Papp Diastereoisomer A.
Where [6] appears, read: human, plasma, Diastereoisomer A (upfield shift in 31P NMR), read-out: t1/2, Human Plasma, Diastereoisomer A (converted).
Setting [7] is: t1/2, Mouse Hepatocytes, Diastereoisomer A.
The mark [8] stands for this setting: Diastereoisomer B, read-out: Papp Diastereoisomer B.
[9] abbreviates: human, plasma, Diastereoisomer B, read-out: t1/2, Human Plasma, Diastereoisomer B (converted).
Setting [10] is: t1/2, Mouse Hepatocytes, Diastereoisomer B.

SMILES strings stand for the structures. Where two headings read alike, the source gives them in different places.

Consider `CC(C)(C)C(=O)OCO[P@@]1(=O)OCC(C)(C)[C@H](C(=O)NCCC(=O)O)O1` [Compound No. 91, 3-((2S,4R)-5,5-dimethyl-2-oxido-2-((pivaloyloxy)methoxy)-1,3,2-dioxaphosphinane-4-carboxamido)propanoic acid], for which, in data set [1] (setting [5]), the Papp A→B at 60 min amounted to 4.5 nm/s. Further, the results for the half-life at 5 µM in data set [2] (Diastereoisomer A) and in data set [4] (setting [7]) were 67.2 min and 18 min, respectively. Also, the half-life at 3 µM in data set [3] (setting [6]) was more than 60 min.

Consider `COC(=O)CCNC(=O)[C@@H]1OP(=O)(N[C@@H](C)C(=O)OCCc2ccccc2)OCC1(C)C` (stereo partly drawn) [Compound No. 2, Methyl 3-((4R)-5,5-dimethyl-2-oxido-2-(((S)-1-oxo-1-phenethoxypropan-2-yl)amino)-1,3,2-dioxaphosphinane-4-carboxamido)propanoate], for which the Papp A→B at 60 min in data set [1] (setting [5]) is 33.5 nm/s; in data set [1] (setting [8]), 26.1 nm/s. The half-life at 5 µM is less than 15 min in data set [2] (Diastereoisomer A), less than 15 min in data set [2] (Diastereoisomer B), 23.4 min in data set [4] (setting [7]) and 26.4 min in data set [4] (setting [10]). Also, the values for the half-life at 3 µM in data set [3] (setting [6]) and in data set [3] (setting [9]) were 57 min and 54 min, respectively.

`COC(=O)CCNC(=O)[C@@H]1OP(=O)(OCOC(=O)OC(C)C)OCC1(C)C` (stereo partly drawn) [Compound No. 69, Methyl 3-((4R)-2-(((isopropoxycarbonyl)oxy)methoxy)-5,5-dimethyl-2-oxido-1,3,2-dioxaphosphinane-4-carboxamido)propanoate]: the Papp A→B at 60 min in data set [1] (setting [5]) was determined as 228 nm/s; in data set [1] (setting [8]), 299 nm/s. Also, the half-life at 5 µM in data set [2] (Diastereoisomer A), in data set [2] (Diastereoisomer B), in data set [4] (setting [7]) and in data set [4] (setting [10]) was less than 15 min in each case. The half-life at 3 µM is more than 60 min in data set [3] (setting [6]) and less than 9.6 min in data set [3] (setting [9]).

With `CC1(C)COP(=O)(O)O[C@H]1C(=O)NCCC(=O)O` [compound 108, 3-((4R)-2-hydroxy-5,5-dimethyl-2-oxido-1,3,2-dioxaphosphinane-4-carboxamido)propanoic acid], in data set [1] (setting [5]), the Papp A→B at 60 min was 5.8 nm/s. Further, the half-life at 5 µM in data set [2] (Diastereoisomer A) and in data set [4] (setting [7]) was 15 min throughout. The half-life at 3 µM in data set [3] (setting [6]) was 49.8 min.

Take `COC(=O)CCNC(=O)[C@@H]1OP(=O)(N[C@@H](Cc2ccccc2)C(=O)OCc2ccccc2)OCC1(C)C` (stereo partly drawn) [compound 10, benzyl ((4R)-4-((3-methoxy-3-oxopropyl)carbamoyl)-5,5-dimethyl-2-oxido-1,3,2-dioxaphosphinan-2-yl)-L-phenylalaninate]: the Papp A→B at 60 min came to 101 nm/s in data set [1] (setting [5]) and 140 nm/s in data set [1] (setting [8]). Also, the half-life at 5 µM in data set [2] (Diastereoisomer A), in data set [2] (Diastereoisomer B), in data set [4] (setting [7]) and in data set [4] (setting [10]) was less than 15 min throughout.

In the case of `COC(=O)CCNC(=O)[C@@H]1OP(=O)(OCOC(=O)c2ccccc2)OCC1(C)C` (stereo partly drawn) [Compound No. 64, (((4R)-4-((3-methoxy-3-oxopropyl)carbamoyl)-5,5-dimethyl-2-oxido-1,3,2-dioxaphosphinan-2-yl)oxy)methyl benzoate], the Papp A→B at 60 min in data set [1] (setting [5]) was 160 nm/s; in data set [1] (setting [8]) it was 207 nm/s. The half-life at 5 µM in data set [2] (Diastereoisomer A), in data set [2] (Diastereoisomer B), in data set [4] (setting [7]) and in data set [4] (setting [10]) was less than 15 min throughout. Also, the half-life at 3 µM in data set [3] (setting [6]) and in data set [3] (setting [9]) was less than 9.6 min in each case.

With `COC(=O)CCNC(=O)[C@@H]1OP(=O)(NCCN2CCCC2)OCC1(C)C` (stereo partly drawn) [compound 109, methyl 3-((4R)-5,5-dimethyl-2-oxido-2-((2-(pyrrolidin-1-yl)ethyl)amino)-1,3,2-dioxaphosphinane-4-carboxamido)propanoate], the Papp A→B at 60 min in data set [1] (setting [5]) was 52.6 nm/s. The half-life in data set [2] (Diastereoisomer A (upfield shift in 31P NMR), 5 μM, 1 million cells/ml, 37° C., human hepatocytes, read-out: t1/2, Human Hepatocytes, Diastereoisomer A (converted)) is more than 240 min. Also, in data set [3] (Diastereoisomer A (upfield shift in 31P NMR), read-out: t1/2, Human Plasma, Diastereoisomer A (converted)), the half-life at 3 µM is more than 60 min. In addition, the half-life at 5 µM in data set [4] (Diastereoisomer A (upfield shift in 31P NMR), 5 μM, 1 million cells/ml, 37° C., mouse hepatocytes, read-out: t1/2, Mouse Hepatocytes, Diastereoisomer A (converted)) is 203 min.

For the molecule `COC(=O)CCNC(=O)[C@@H]1OP(=O)(OCOC(=O)C(C)(C)C)OCC1(C)C` (stereo partly drawn) [Compound No. 65, (((4R)-4-((3-methoxy-3-oxopropyl)carbamoyl)-5,5-dimethyl-2-oxido-1,3,2-dioxaphosphinan-2-yl)oxy)methyl pivalate], the Papp A→B at 60 min in data set [1] (setting [5]) stood at 203 nm/s; in data set [1] (setting [8]), 183 nm/s. In addition, the half-life at 5 µM in data set [2] (Diastereoisomer A), in data set [2] (Diastereoisomer B), in data set [4] (setting [7]) and in data set [4] (setting [10]) was less than 15 min in each case. Besides, the half-life at 3 µM is more than 60 min in data set [3] (setting [6]) and less than 9.6 min in data set [3] (setting [9]).

For the molecule `COC(=O)CCNC(=O)[C@@H]1OP(=O)(N[C@@H](C)C(=O)OCc2cccnc2)OCC1(C)C` (stereo partly drawn) [compound 24, methyl 3-((4R)-5,5-dimethyl-2-oxido-2-(((S)-1-oxo-1-(pyridin-3-ylmethoxy)propan-2-yl)amino)-1,3,2-dioxaphosphinane-4-carboxamido)propanoate], the results for the Papp A→B at 60 min in data set [1] (setting [5]) and in data set [1] (setting [8]) were 5.4 nm/s and 6 nm/s, respectively. Moreover, the half-life at 5 µM in data set [2] (Diastereoisomer A) is more than 240 min; in data set [2] (Diastereoisomer B), 191 min; in data set [4] (setting [7]), less than 15 min; in data set [4] (setting [10]), less than 15 min. Further, the half-life at 3 µM in data set [3] (setting [6]) is 15.6 min; in data set [3] (setting [9]), 49.2 min.

`COC(=O)CCNC(=O)[C@@H]1OP(=O)(OCOC(=O)c2cncs2)OCC1(C)C` (stereo partly drawn) [Compound No. 70, (((4R)-4-((3-methoxy-3-oxopropyl)carbamoyl)-5,5-dimethyl-2-oxido-1,3,2-dioxaphosphinan-2-yl)oxy)methyl thiazole-5-carboxylate]: the Papp A→B at 60 min was found to be 15.8 nm/s in data set [1] (setting [5]) and 25.6 nm/s in data set [1] (setting [8]). Moreover, the half-life at 3 µM in data set [3] (setting [6]) and in data set [3] (setting [9]) was less than 9.6 min throughout.

In the case of `COC(=O)CCNC(=O)[C@@H]1OP(=O)(OCCSC(=O)C(C)(C)C)OCC1(C)C` (stereo partly drawn) [Compound No. 2-133, Methyl 3-((4R)-5,5-dimethyl-2-oxido-2-(2-(pivaloylthio)ethoxy)-1,3,2-dioxaphosphinane-4-carboxamido)propanoate], the Papp A→B at 60 min in data set [1] (setting [5]) was 211 nm/s; in data set [1] (setting [8]), 210 nm/s. Besides, the half-life at 5 µM in data set [2] (Diastereoisomer A), in data set [2] (Diastereoisomer B), in data set [4] (setting [7]) and in data set [4] (setting [10]) was less than 15 min in each case.

`COC(=O)CCNC(=O)[C@@H]1OP(=O)(N[C@@H](C)C(=O)OCc2ccccc2)OCC1(C)C` (stereo partly drawn) [Compound No. 11, Benzyl ((4R)-4-((3-methoxy-3-oxopropyl)carbamoyl)-5,5-dimethyl-2-oxido-1,3,2-dioxaphosphinan-2-yl)-L-alaninate]: the Papp A→B at 60 min in data set [1] (setting [5]) amounted to 35.2 nm/s; in data set [1] (setting [8]) it was 31.2 nm/s. Further, the half-life at 5 µM in data set [2] (Diastereoisomer A) was 27.6 min; in data set [2] (Diastereoisomer B), less than 15 min; in data set [4] (setting [7]) it was less than 15 min; in data set [4] (setting [10]) it was less than 15 min.
